In patent US11078168B2, “Substituted N-hydroxyamidinoheterocycles as modulators of indoleamine 2,3-dioxygenase” (PHENEX DISCOVERY VERWALTUNGS-GMBH, priority 2016, dated 2021):

The compounds below were run against T1, Indoleamine 2,3-dioxygenase (Homo sapiens, UniProt P14902) (assay: SKOV-3 cellular Indoleamine 2,3-dioxygenase assay). Conditions: SKOV-3 cells, 50 ng/ml Interferon gamma, 100 μM L-Tryptophan, 24 hours, N-Formylkynurenin fluorescence detection; read-out: cell based activity.
T1 construct: endogenous in cells; host or cells: SKOV-3 (ATCC HTB-77), stimulated with interferon gamma
T1 sequence (P14902 whole entry): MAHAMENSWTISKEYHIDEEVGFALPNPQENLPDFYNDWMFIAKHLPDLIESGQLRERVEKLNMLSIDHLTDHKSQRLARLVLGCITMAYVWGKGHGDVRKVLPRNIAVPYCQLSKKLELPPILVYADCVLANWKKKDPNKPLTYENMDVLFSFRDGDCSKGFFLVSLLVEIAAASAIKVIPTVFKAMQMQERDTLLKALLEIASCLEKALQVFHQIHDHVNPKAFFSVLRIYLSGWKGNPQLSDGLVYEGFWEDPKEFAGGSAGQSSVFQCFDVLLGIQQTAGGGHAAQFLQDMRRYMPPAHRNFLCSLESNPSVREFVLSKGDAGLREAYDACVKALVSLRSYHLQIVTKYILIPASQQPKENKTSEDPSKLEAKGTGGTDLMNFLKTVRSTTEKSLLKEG
Experimental: SKOV-3 cellular Indoleamine 2,3-dioxygenase assay
SKOV-3 cells were obtained from the American Type Culture Collection (ATCC® HTB-77™) and maintained in McCoy's medium (Pan Biotech) supplemented with 10% fetal bovine serum and 1% Penicilin/Streptomycin. Cells were kept at 37° C. in a humidified incubator with 5% CO2. For assay preparation, cells were seeded at a density of 2*10^5/ml into black clear bottom 96 well plates in 100 μl medium/well supplemented with 50 ng/ml Interferon gamma (eBioscience, Thermo Fisher Scientific). After cells fully adhered to the plate, dilution series of compounds were added in medium containing additional L-Tryptophan to a final L-Tryptophan concentration of 100 μM. The cells were incubated for 24 hours. Detection of produced N-Formylkynurenin was performed by addition of 3-Methylpiperidine to a final concentration of 200 mM. The plates were sealed and heated to 65° C. for 20 minutes in a water bath. After cooling the fluorescence of each well was recorded with a Victor™X4 (PerkinElmer) plate reader at an emission wavelength of 535 nm and excitation at 405 nm (Tomek et al.; Anal Bioanal Chem (2013) 405:2515-2524., Tomek et al.; Biochim Biophys Acta. 2015 September; 1850(9):1772-80).
`NS(=O)(=O)c1ccc(C(=O)NCCSc2nonc2C(=NO)Nc2cccc(C(F)F)c2)cc1` [117/15] was tested, and the IC50 was less than 100 nM.
With `Cn1nc(C(=O)NCCSc2nonc2C(=NO)Nc2ccc(F)c(C(F)(F)F)c2)[nH]c1=O` [117/16] the IC50 was less than 100 nM.
`Cn1nc(C(=O)NCCSc2nonc2C(=NO)Nc2ccc(F)c(C(F)F)c2)[nH]c1=O` [117/17] gave an IC50 of 100 to 1000 nM.
Work on `Cn1nc(C(=O)NCCSc2nonc2C(=NO)Nc2cccc(C(F)(F)F)c2)[nH]c1=O` [117/18] yielded an IC50 of 100 to 1000 nM.
`NS(=O)(=O)CC(=O)NCCSc1nonc1/C(=N/O)Nc1cccc(C(F)F)c1` [117/19] was tested, and the IC50 was less than 100 nM.
With `CC(C)(C)OC(=O)NC1(CC(=O)NCCSc2nonc2C(=NO)Nc2ccc(F)c(C(F)F)c2)COC1` [117/20] the IC50 was less than 100 nM.
For `NS(=O)(=O)C1(C(=O)NCCSc2nonc2C(=NO)Nc2ccc(F)c(C(F)F)c2)CC1` [117/21], the IC50 was less than 100 nM.
Work on `NS(=O)(=O)CC(=O)NCCSc1nonc1C(=NO)Nc1cc(Br)c(F)cc1F` [117/22] yielded an IC50 of less than 100 nM.
`NS(=O)(=O)CC(=O)NCCSc1nonc1C(=NO)Nc1ccc(F)c(Br)c1F` [117/23] showed an IC50 of less than 100 nM.
For `NS(=O)(=O)CC(=O)NCCSc1nonc1C(=NO)Nc1cc(F)c(F)c(Br)c1` [117/24], the IC50 was less than 100 nM.
With `NC(=O)CC(=O)NCCSc1nonc1C(=NO)Nc1cccc(C(F)(F)F)c1` [119/1] the IC50 was less than 100 nM.
`NC(=O)CC(=O)NCCSc1nonc1C(=NO)Nc1cccc(C(F)F)c1` [119/2] gave an IC50 of less than 100 nM.
`NC(=O)CS(=O)(=O)NCCSc1nonc1C(=NO)Nc1ccc(F)c(C(F)F)c1` [119/3] gave an IC50 of less than 100 nM.
Work on `NC(=O)CS(=O)(=O)NCCSc1nonc1C(=NO)Nc1cccc(C(F)F)c1` [119/4] yielded an IC50 of less than 100 nM.
In the case of `NC(=O)CCS(=O)(=O)NCCSc1nonc1C(=NO)Nc1ccc(F)c(C(F)F)c1` [119/5], the IC50 is reported as less than 100 nM.
For `NC(=O)CNS(=O)(=O)NCCSc1nonc1C(=NO)Nc1ccc(F)c(C(F)F)c1` [119/6], the IC50 was less than 100 nM.
Compound `CS(=N)(=O)NCCSc1nonc1C(=NO)Nc1ccc(F)c(C(F)F)c1` (centres unmarked) [120/1] has an IC50 of less than 100 nM.
`O=C(NCCSc1nonc1C(=NO)Nc1ccc(F)c(C(F)(F)F)c1)C1(O)CNC1` [123/1] gave an IC50 of 100 to 1000 nM.
`COC1(C(=O)NCCSc2nonc2C(=NO)Nc2ccc(F)c(C(F)F)c2)CNC1` [123/2] showed an IC50 of less than 100 nM.
In the case of `CC1(C(=O)NCCSc2nonc2/C(=N/O)Nc2ccc(F)c(C(F)F)c2)CCN1` (centres unmarked) [123/3], the IC50 is reported as less than 100 nM.
`O=C(NCCSc1nonc1C(=NO)Nc1ccc(F)c(C(F)F)c1)C1CCN1` (centres unmarked) [123/4] gave an IC50 of less than 100 nM.
`CC1(C(=O)NCCSc2nonc2C(=NO)Nc2ccc(F)c(C(F)F)c2)CNC1` [123/5] showed an IC50 of less than 100 nM.
`O=C(NCCSc1nonc1C(=NO)Nc1ccc(F)c(C(F)F)c1)C1(F)CNC1` [123/6] gave an IC50 of less than 100 nM.
For `NC(CC(=O)NCCSc1nonc1C(=NO)Nc1ccc(F)c(C(F)F)c1)C(F)(F)F` (centres unmarked) [123/7], the IC50 was less than 100 nM.
With `CS(=N)(=O)CC(=O)NCCSc1nonc1C(=NO)Nc1ccc(F)c(C(F)F)c1` (centres unmarked) [127/1] the IC50 was less than 100 nM.
Compound `CS(=N)(=O)CC(=O)NCCSc1nonc1C(=NO)Nc1ccc(F)c(C(F)(F)F)c1` (centres unmarked) [127/2] has an IC50 of less than 100 nM.
`CS(=N)(=O)CC(=O)NCCSc1nonc1C(=NO)Nc1cccc(Cl)c1` (centres unmarked) [127/3] gave an IC50 of less than 100 nM.
`CS(=N)(=O)CC(=O)NCCSc1nonc1C(=NO)Nc1cccc(Br)c1` (centres unmarked) [127/4] showed an IC50 of less than 100 nM.
`NS(=O)(=O)NCC(=O)NCCSc1nonc1C(=NO)Nc1ccc(F)c(C(F)(F)F)c1` [128/1] showed an IC50 of less than 100 nM.
`CS(=O)(=O)NCC(=O)NCCSc1nonc1C(=NO)Nc1ccc(F)c(C(F)F)c1` [128/2] gave an IC50 of less than 100 nM.
`CC(=O)N1CC(O)(C(=O)NCCSc2nonc2C(=NO)Nc2ccc(F)c(C(F)F)c2)C1` [128/3] was tested, and the IC50 was less than 100 nM.
`NC(=O)N1CC(O)(C(=O)NCCSc2nonc2C(=NO)Nc2ccc(F)c(C(F)F)c2)C1` [128/4] was tested, and the IC50 was 100 to 1000 nM.
For `CS(=O)(=O)N1CC(O)(C(=O)NCCSc2nonc2C(=NO)Nc2ccc(F)c(C(F)F)c2)C1` [128/5], the IC50 was less than 100 nM.
With `NS(=O)(=O)N1CC(O)(C(=O)NCCSc2nonc2C(=NO)Nc2ccc(F)c(C(F)F)c2)C1` [128/6] the IC50 was less than 100 nM.
`NS(=O)(=O)N1CC(C(=O)NCCSc2nonc2C(=NO)Nc2ccc(F)c(C(F)F)c2)C1` [128/7] gave an IC50 of less than 100 nM.
`CS(=O)(=O)NCCOc1nonc1/C(=N/O)Nc1ccc(F)c(Br)c1` [Example 1, N-(3-Bromo-4-fluorophenyl)-N′-hydroxy-4-(2-(methylsulfonamido)ethoxy)-1,2,5-oxadiazole-3-carboximidamide] gave an IC50 of less than 100 nM.
With `Nc1c(NCCOc2nonc2C(=NO)Nc2ccc(F)c(Cl)c2)c(=O)c1=O` [Example 2, 4-(2-((2-Amino-3,4-dioxocyclobut-1-en-1-yl)amino)ethoxy)-N-(3-chloro-4-fluorophenyl)-N′-hydroxy-1,2,5-oxadiazole-3-carboximidamide] the IC50 was less than 100 nM.
`O=C(NCCOc1nonc1C(=NO)Nc1ccc(F)c(Cl)c1)C1COCCN1` (centres unmarked) [Example 3, N-(2-((4-(N-(3-Chloro-4-fluorophenyl)-N′-hydroxycarbamimidoyl)-1,2,5-oxadiazol-3-yl)oxy)ethyl)morpholine-3-carboxamide] showed an IC50 of 100 to 1000 nM.
With `NC(=O)C(=O)NCCOc1nonc1C(=NO)Nc1ccc(F)c(Cl)c1` [Example 4, N^1-(2-((4-(N-(3-Chloro-4-fluorophenyl)-N′-hydroxycarbamimidoyl)-1,2,5-oxadiazol-3-yl)oxy)ethyl)oxalamide] the IC50 was 100 to 1000 nM.
With `NC(=O)NCCOc1nonc1C(=NO)Nc1ccc(F)c(Cl)c1` [Example 5, N-(3-Chloro-4-fluorophenyl)-N′-hydroxy-4-(2-ureidoethoxy)-1,2,5-oxadiazole-3-carboximidamide] the IC50 was less than 100 nM.
With `NS(=O)(=O)NCCOc1nonc1/C(=N/O)Nc1ccc(F)c(Br)c1` [Example 6, N-(3-Bromo-4-fluorophenyl)-N′-hydroxy-4-(2-(sulfamoylamino)ethoxy)-1,2,5-oxadiazole-3-carboximidamide] the IC50 was less than 100 nM.
For `NC(=O)C1(C(=O)NCCOc2nonc2C(=NO)Nc2ccc(F)c(Cl)c2)CC1` [Example 7, N-(2-((4-(N-(3-chloro-4-fluorophenyl)-N′-hydroxycarbamimidoyl)-1,2,5-oxadiazol-3-yl)oxy)ethyl)cyclopropane-1,1-dicarboxamide], the IC50 was less than 100 nM.
For `ON=C(Nc1ccc(F)c(Br)c1)c1nonc1OCc1ccccc1` [Example 8, 4-(Benzyloxy)-N-(3-bromo-4-fluorophenyl)-N′-hydroxy-1,2,5-oxadiazole-3-carboximidamide], the IC50 was greater than 1000 nM.
For `O=C(NCCOc1nonc1C(=NO)Nc1ccc(F)c(Cl)c1)c1nnn[nH]1` [Example 9, N-(2-((4-(N-(3-chloro-4-fluorophenyl)-N′-hydroxycarbamimidoyl)-1,2,5-oxadiazol-3-yl)oxy)ethyl)-1H-tetrazole-5-carboxamide], the IC50 was greater than 1000 nM.
`ON=C(Nc1ccc(F)c(Cl)c1)c1nonc1OCCN1CCOCC1` [Example 10, N-(3-Chloro-4-fluorophenyl)-N′-hydroxy-4-(2-morpholinoethoxy)-1,2,5-oxadiazole-3-carboximidamide] was tested, and the IC50 was 100 to 1000 nM.
In the case of `NC(=O)CCCOc1nonc1C(=NO)Nc1ccc(F)c(Cl)c1` [Example 11, 4-((4-(N-(3-Chloro-4-fluorophenyl)-N′-hydroxycarbamimidoyl)-1,2,5-oxadiazol-3-yl)oxy)butanamide], the IC50 is reported as 100 to 1000 nM.
For `Cc1nnc(CCCOc2nonc2C(=NO)Nc2ccc(F)c(Cl)c2)[nH]1` [Example 12, N-(3-Chloro-4-fluorophenyl)-N′-hydroxy-4-(3-(5-methyl-4H-1,2,4-triazol-3-yl)propoxy)-1,2,5-oxadiazole-3-carboximidamide], the IC50 was 100 to 1000 nM.
Compound `O=C(O)CCOc1nonc1C(=NO)Nc1ccc(F)c(Cl)c1` [Example 13, 3-((4-(N-(3-Chloro-4-fluorophenyl)-N′-hydroxycarbamimidoyl)-1,2,5-oxadiazol-3-yl)oxy)propanoic acid] has an IC50 greater than 1000 nM.
`Cc1nnc(NCCOc2nonc2C(=NO)Nc2ccc(F)c(Cl)c2)o1` [Example 14, N-(3-Chloro-4-fluorophenyl)-N′-hydroxy-4-(2-((5-methyl-1,3,4-oxadiazol-2-yl)amino)ethoxy)-1,2,5-oxadiazole-3-carboximidamide] showed an IC50 of 100 to 1000 nM.
`Nc1nnc(NCCOc2nonc2C(=NO)Nc2ccc(F)c(Cl)c2)[nH]1` [Example 15, 4-(2-((5-Amino-4H-1,2,4-triazol-3-yl)amino)ethoxy)-N-(3-chloro-4-fluorophenyl)-N′-hydroxy-1,2,5-oxadiazole-3-carboximidamide] gave an IC50 of 100 to 1000 nM.
In the case of `CC(CN)Oc1nonc1C(=NO)Nc1ccc(F)c(Cl)c1` (centres unmarked) [Example 17, 4-((1-Aminopropan-2-yl)oxy)-N-(3-chloro-4-fluorophenyl)-N′-hydroxy-1,2,5-oxadiazole-3-carboximidamide], the IC50 is reported as 100 to 1000 nM.
`O=C(NCCOc1nonc1C(=NO)Nc1ccc(F)c(Cl)c1)N1C[C@@H](O)[C@@H](O)C1` [Example 18, (3S,4R)—N-(2-((4-(N-(3-Chloro-4-fluorophenyl)-N′-hydroxycarbamimidoyl)-1,2,5-oxadiazol-3-yl)oxy)ethyl)-3,4-dihydroxypyrrolidine-1-carboxamide] gave an IC50 of 100 to 1000 nM.
For `CS(=O)(=O)CCOc1nonc1C(=NO)Nc1ccc(F)c(Cl)c1` [Example 20, N-(3-Chloro-4-fluorophenyl)-N′-hydroxy-4-(2-(methylsulfonyl)ethoxy)-1,2,5-oxadiazole-3-carboximidamide], the IC50 was greater than 1000 nM.
